According to US9757402B2, “Method for measuring cell-to-cell transmission of α-synuclein aggregates using bimolecular fluorescence complementation system and method for screening a substance for preventing or treating neurodegenerative disease using the same” (KONKUK UNIVERSITY INDUSTRIAL COOPERATION CORP, priority 2014, dated 2017):

Legend:
Type in all cases: in vivo, Caenorhabditis elegans
[1] = system: V1S+SV2 and daf-16(mu86); V1S+SV2 animals; assay: Pharyngeal pumping analysis with GlcNAc treatment; conditions: 10 mM GlcNAc, both V1S+SV2 and daf-16(mu86)
Protocol: Pharyngeal pumping was counted for 1 min at RT using a fluorescence microscope. 25 worms from each strain were analyzed. The data were expressed as PPM (Pumps Per Minute). N-acetylglucosamine (GlcNAc) (Sigma) was dissolved in distilled water to prepare 1 M as stock solution. The stock solution was diluted with LB liquid medium. The L4-stage worms of each transgenic line were transferred to NGM plates containing a final concentration of 10 mM GlcNAc.

[2] = system: lysosomal genes, sqst-1/p62; assay: Expression of lysosomal and autophagy genes (qPCR) upon GlcNAc treatment
Protocol: (§1) N-acetylglucosamine (GlcNAc) (Sigma) was dissolved in distilled water to prepare 1 M as stock solution. The stock solution was diluted with LB liquid medium. The L4-stage worms of each transgenic line were transferred to NGM plates containing a final concentration of 10 mM GlcNAc.
Adult transgenic worms derived from daf-16(mu86) mutants with or without hlh-30p::hlh-30 expression were collected, and washed in M9 buffer. The worms in the buffer were sonicated and the samples were subjected to several freeze-thaw cycles using liquid nitrogen. RNA was extracted with Trizol (Invitrogen, Carlsbad, Calif.) and purified using the RNeasy kit (Qiagen, Valencia, Calif., USA). Each cDNA was synthesized from 500 ng of total RNA using the iScript cDNA synthesis kit (Bio-Rad, Hercules, Calif.). For real-time PCR, target genes and specific primers were mixed with SYBR Premix Ex Taq II (Takara, Shiga, Japan) in 96-well plates. Specific primers previously designed by other group were used (Lapierre, L. R., et al. (2013). The TFEB orthologue HLH-30 regulates autophagy and modulates longevity in Caenorhabditis elegans. Nat. Commun 4, 2267). The DNA products were analyzed using the 7500 Real-Time PCR system (Applied Biosystems, Foster City, Calif.). […]

[3] = system: single tissue expression lines carrying V1S or SV2 alone in N2 and daf-16(mu86) mutant worms; assay: GlcNAc treatment of single tissue expression lines (V1S or SV2 alone)
Protocol: Pmyo-2::V1S and Pflp-21::SV2-ICR-DsRed plasmids were co-injected into the gonads of late L4-stage daf-2(e1370) and daf-16(mu86) mutant worms with the pRF4. As a control for aging related BiFC models, Pmyo-2::V1S or Pflp-21::SV2::ICR::DsRed alone was injected into the gonads of late L4-stage of N2 and daf-16(mu86) mutant worms with pRF4. After several transgenic lines containing the introduced plasmids were obtained, three representative lines in each mutant background were used for experiments.
Worms were immobilized with 10 mM sodium azide in M9 buffer, mounted on 2% agar pads, and covered with a coverslip. Images of the worms were acquired using Olympus FV1000 confocal laser scanning microscopy (Olympus, Tokyo, Japan).
as §1
Adult worms of each strain were washed with M9 buffer and subsequently with PBS containing 1% Triton X-100. The worm pellet was sonicated in PBS containing 1% Triton X-100, 1% (v/v) protease inhibitor cocktail. Protein samples (500 ng) were loaded onto nitrocellulose membranes, which were then dried and incubated in blocking solution. The primary antibodies used for dot blotting were the monoclonal anti-α-synuclein antibodies 274 mAb and Syn-O2, the latter of which is specific for aggregated α-synuclein. Chemiluminescence detection was performed using the LAS-3000 luminescence image analyzer and Multi Gauge (v3.0) software.

[4] = system: polyubiquitinated proteins; assay: Steady state levels of polyubiquitinated proteins (western blotting) in transgenic worms; conditions: transgenic animals treated with GlcNAc
Protocol: (§2) N-acetylglucosamine (GlcNAc) (Sigma) was dissolved in distilled water to prepare 1 M as stock solution. The stock solution was diluted with LB liquid medium. The L4-stage worms of each transgenic line were transferred to NGM plates containing a final concentration of 10 mM GlcNAc. Adult worms were washed with M9 buffer and subsequently with PBS containing 1% Triton X-100. The worm pellet was sonicated in PBS containing 1% Triton X-100, 1% (v/v) protease inhibitor cocktail (Sigma) and centrifuged to obtain the Triton-soluble (supernatant) and insoluble (pellet) fractions. Protein concentration was measured using the BCA protein assay kit (Pierce, Rockford, USA). Protein samples (3 μg for α-synuclein expression test and 50 μg to detect polyubiquitin proteins) were loaded onto 12% SDS-PAGE gels. The primary antibodies used for western blotting were monoclonal anti-α-synuclein antibody, 274 mAb and anti-ubiquitn antibody (ab7254; Abcam, Cambridge, Mass.). Chemiluminescence detection was performed using the LAS-3000 luminescence image analyzer, (Fujifilm, Tokyo, Japan), and Multi Gauge (y3.0) software.

[5] = system: V1S+SV2 and daf-16(mu86); V1S+SV2 animals; assay: Nerve degeneration in C. elegans BiFC model with GlcNAc treatment; conditions: 10 mM GlcNAc, both V1S+SV2 and daf-16(mu86)
Protocol: Worms were immobilized with 10 mM sodium azide in M9 buffer, mounted on 2% agar pads, and covered with a coverslip. Images of the worms were acquired using Olympus FV1000 confocal laser scanning microscopy (Olympus, Tokyo, Japan). N-acetylglucosamine (GlcNAc) (Sigma) was dissolved in distilled water to prepare 1 M as stock solution. The stock solution was diluted with LB liquid medium. The L4-stage worms of each transgenic line were transferred to NGM plates containing a final concentration of 10 mM GlcNAc. The present inventors then examined the degeneration of axonal processes from the URA motor neuron (Rogers et al., 2003). These nerves were intact in the wild-type N2 at day 8. Expression of SV2 in neurons caused neuritic bleb formation and nerve fragmentation in a small number of worms (FIGS. 23g, 23h, 23i, 23j, and 23k), indicating autonomous cellular toxicity of α-synuclein in neurons. These degenerative phenotypes were further exacerbated when […] was expressed in the pharyngeal muscle, and approximately 15% of nerves were completely lost (FIG. 23k). To verify nerve fragmentation, 3-D reconstruction of the stacked images of nerve processes was performed. […] Nerve degeneration worsened as the transgenic worms aged (FIG. 23j).

[6] = system: V1S+SV2 and daf-16(mu86); V1S+SV2 animals; assay: BiFC-positive inclusion body formation / aggregate transmission in C. elegans BiFC model with GlcNAc treatment
Protocol: Pmyo-2::V1S and Pflp-21::SV2-ICR-DsRed plasmids were co-injected into the gonads of late L4-stage N2 worms with a selection marker, pRF4 which expresses a mutant collagen gene, rol-6(su1006) (Mello, C. C., et al. 1991. Efficient gene transfer in C. elegans: extrachromosomal maintenance and integration of transforming sequences. The EMBO J 10, 3959-3970), to prepare double transgenic line expressing the BiFC pair. As a negative control for BiFC, Pmyo-2::V1S alone was injected into N2 worms with pRF4, and Pflp-21::SV2-ICR-DsRed alone was injected into unc-119(ed3) mutant worms with a selection marker, pCFJ151, which expresses unc-119(+) gene (Frokjaer-Jensen, et al. 2008. Single-copy insertion of transgenes in Caenorhabditis elegans. Nat. Genet 40, 1375-1383). The plasmid Pmyo-2::V1 was prepared to express the BiFC partial sequence only by introducing the stop codon right before the α-synuclein coding sequence in Pmyo-2::V1S and was prepared using a QuickChange Site-Directed Mutagenesis Kit (Stratagene, La Jolla, Calif.). Pmyo-2::V1 and Pflp-21::SV2-ICR-DsRed plasmids were then co-injected into N2 with pRF4. In addition, Pflp-21::DsRed was injected into N2 with pRF4 as a control for the effects of general protein overexpression in neurons. For chromosomal integration of the introduced plasmids, injected lines were exposed to UV irradiation. […]

α-synuclein aggregates = assay: Dot blot and western blot of α-synuclein aggregates in transgenic worms
Protocol: as §2, with “software. Adult worms of each strain were washed with M9 buffer and subsequently with PBS containing 1% Triton X-100. […] Chemiluminescence detection was performed using the LAS-3000 luminescence image analyzer and Multi Gauge (v3.0) software.” for “software.”

[7] = system: asp-4(ok2693); V1S+SV2 and asp-1(tm666); V1S+SV2 worms; assay: Epistasis analysis: GlcNAc treatment of cathepsin mutant BiFC worms; conditions: asp-1 and asp-4 mutant transgenic animals, in contrast to V1S+SV2 worms
Excerpt: A plasmid expressing hlh-30p::hlh-30::gfp was obtained from Dr. Malene Hansen (Sanford-Burnham Medical Research Institute, CA, USA). The plasmid hlh-30p::hlh-30 was designed to introduce codon before the GFP coding sequence using a QuickChange Site-Directed Mutagenesis Kit to inhibit GFP expression. As a control, each Pmyo-2::V1S or Pflp 21::SV2-ICR-DsRed and hlh-30p::hlh-30 were co-injected into the gonads of late L4-stage N2 worm with pRF4. The plasmids expressing Pmyo-2::V1S, Pflp-21::SV2-ICR-DsRed and hlh-30p::hlh-30 were co-injected into the gonads of late L4-stage daf-16(mu86) mutant worms with pRF4. To analyze lysosomal dysfunction, asp-4(ok2693) and asp-1(tm666) mutant worms, in which the lysosomal enzyme cathepsin gene is inactivated, were used. Pmyo-2::V1S and Pflp-21::SV2-ICR-DsRed plasmids were co-injected into the gonads of late L4-stage mutant worms with pRF4. After transgenic lines containing the introduced plasmids were obtained, three representative lines of each genotype were used for experiments
as §1

[8] = system: V1S+SV2 and daf-16(mu86); V1S+SV2 animals; assay: Life span assay with GlcNAc treatment; conditions: 10 mM GlcNAc, both V1S+SV2 and daf-16(mu86)
Protocol: Eggs laid by adult mother worms were synchronously grown up to the L4 larval stage on NGM plates seeded with E. coli OP50 at 20° C. The L4-stage worms were transferred to NGM plates containing 100 mM 5-fluoro-2′-deoxyuridine (Sigma) to prevent them from producing progeny. The number of worms that were alive or dead was recorded every 1-2 days.
as §1

Compound: CC(=O)N[C@H]1C(O)O[C@H](CO)[C@@H](O)[C@@H]1O (stereo partly drawn) [GlcNAc, N-acetylglucosamine]
- pumping behavior [1]: significantly alleviated
- pumping behavior ([1]; listed as N-acetylglucosamine): increased
- expression of lysosomal genes and autophagy gene sqst-1/p62 [2]: increased
- pathogenic phenotypes (nerve degeneration, pumping behavior, life span) ([3]; V1S or SV2 alone in N2 and daf-16(mu86), versus untreated animals): did not exhibit significant changes
- expression levels of α-synuclein ([3]; dot blot, GlcNAc treatment): not changed
- neuronal expression of flp-21 promoter (Ds-Red) ([3]; with or without GlcNAc treatment): strictly confined in neuronal cells
- levels of polyubiquitinated proteins [4]: decreased
- phenotypes for nerve degeneration [5]: significantly alleviated
- formation of BiFC-positive inclusion bodies ([6]; 10 mM GlcNAc from L4-stage, both V1S+SV2 and daf-16(mu86), V1S+SV2 animals): reduced
- transmission of α-synuclein aggregates ([6]; BiFC experimental animal model): inhibiting
- levels of high molecular weight (HM) α-synuclein aggregates (α-synuclein aggregates; Triton-insoluble (Tx-insol) fraction of transgenic worms, western blot): significantly decreased
- β-sheet-rich α-synuclein aggregates (α-synuclein aggregates; dot blot with Syn-02 antibody, transgenic worms): reduced
- aging-related phenotypes [7]: not rescued
- life span [8]: significantly alleviated
- life span ([8]; listed as N-acetylglucosamine): extended
